Source: PubChem BioAssay AID1918996 (Molecular Pharmacology Branch, DTP, NCI, 2023)
Several values for one entry are separate records, joined by “and”; a condition that tells them apart may be missing. Equal values may be shown once.

System: 349418-098-R-PDC complex spheroid growth
Assay: Anticancer human tumor 349418-098-R-PDC patient-derived lung adenocarcinoma cell line growth inhibition [AhR]
Settings: for viability, T/C: stronger effect = lower value
Method in brief: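 Spheroids combined tumor cells with HUVEC endothelial cells and human MSCs as stroma. AhR antagonists were paired with standard or investigational drugs, each dosed in half-log steps down from near clinical Cmax, or from 10 microM where Cmax was unknown.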

[1] = curve of first compound, second compound 0.1 µM
[2] = curve of first compound, second compound 0.316 µM
[3] = curve of first compound, second compound 1 µM
[4] = curve of first compound, second compound 3.16 µM
[5] = curve of first compound, second compound 10 µM
[6] = second compound 0.1 µM, first compound 0.000949 µM
[7] = second compound 0.1 µM, first compound 0.003 µM
[8] = second compound 0.1 µM, first compound 0.00949 µM
[9] = second compound 0.1 µM, first compound 0.03 µM
[10] = second compound 0.1 µM, first compound 0.0949 µM
[11] = second compound 0.1 µM, first compound 0.3 µM
[12] = second compound 0.316 µM, first compound 0.000949 µM
[13] = second compound 0.316 µM, first compound 0.003 µM
[14] = second compound 0.316 µM, first compound 0.00949 µM
[15] = second compound 0.316 µM, first compound 0.03 µM
[16] = second compound 0.316 µM, first compound 0.0949 µM
[17] = second compound 0.316 µM, first compound 0.3 µM
[18] = second compound 1 µM, first compound 0.000949 µM
[19] = second compound 1 µM, first compound 0.003 µM
[20] = second compound 1 µM, first compound 0.00949 µM
[21] = second compound 1 µM, first compound 0.03 µM
[22] = second compound 1 µM, first compound 0.0949 µM
[23] = second compound 1 µM, first compound 0.3 µM
[24] = second compound 3.16 µM, first compound 0.000949 µM
[25] = second compound 3.16 µM, first compound 0.003 µM
[26] = second compound 3.16 µM, first compound 0.00949 µM
[27] = second compound 3.16 µM, first compound 0.03 µM
[28] = second compound 3.16 µM, first compound 0.0949 µM
[29] = second compound 3.16 µM, first compound 0.3 µM
[30] = second compound 10 µM, first compound 0.000949 µM
[31] = second compound 10 µM, first compound 0.003 µM
[32] = second compound 10 µM, first compound 0.00949 µM
[33] = second compound 10 µM, first compound 0.03 µM
[34] = second compound 10 µM, first compound 0.0949 µM
[35] = second compound 10 µM, first compound 0.3 µM
[36] = second compound 0.1 µM, first compound 0.0316 µM
[37] = second compound 0.1 µM, first compound 0.1 µM
[38] = second compound 0.316 µM, first compound 0.0316 µM
[39] = second compound 0.316 µM, first compound 0.1 µM
[40] = second compound 1 µM, first compound 0.0316 µM
[41] = second compound 1 µM, first compound 0.1 µM
[42] = second compound 3.16 µM, first compound 0.0316 µM
[43] = second compound 3.16 µM, first compound 0.1 µM
[44] = second compound 10 µM, first compound 0.0316 µM
[45] = second compound 10 µM, first compound 0.1 µM
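Also: spheroids exposed to agents for seven days before luminescence viability read.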
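For viability, T/C in this document: spheroids also contain HUVEC endothelial cells and human MSC stroma.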

`COc1ccc([C@@H](O)c2cc(-c3ncnc4cc(N5CCOCC5)ccc34)c(F)cc2Cl)nn1` was tested, and the viability, T/C (compound 0.0316 µM) was 97.4% and 104% and 117%, the viability, T/C (compound 0.1 µM) was 112% and 77.3% and 98.6% and the viability, T/C (compound 0.316 µM) was 101% and 83.1% and 51.5%. The viability, T/C (compound 1 µM) was 84.5% and 66.4% and 65.3%, the viability, T/C (compound 3.16 µM) was 57.2% and 33.5% and 38.6% and the viability, T/C (compound 10 µM) was 16.7% and 11.3% and 12.6%. The IC50 (curve of compound) was 3790 nM and 1770 nM and 1160 nM.
For `Nc1ncn(C2CC(O)C(CO)S2)c(=O)n1` (configuration not stated) + Cc1ccccc1N=Nc1ccc(NC(=O)c2ccnn2C)c(C)c1, the IC50 [1] was 90.5 nM, the IC50 [2] was 80.4 nM and the IC50 [3] was 63.9 nM. It also gave an IC50 [4] of 109 nM, an IC50 [5] of 56.9 nM and a viability, T/C [6] of 116%. It also gave a viability, T/C [7] of 87.8%, a viability, T/C [8] of 83.4% and a viability, T/C [9] of 59.1%. The viability, T/C [10] was 60.5%, the viability, T/C [11] was 28.6% and the viability, T/C [12] was 111%. For the same compound, the viability, T/C [13] was 63.5%, the viability, T/C [14] was 105% and the viability, T/C [15] was 70.2%. For the same compound, the viability, T/C [16] was 47.7%, the viability, T/C [17] was 26.6% and the viability, T/C [18] was 91.5%. The viability, T/C [19] was 92.7%, the viability, T/C [20] was 98.7% and the viability, T/C [21] was 67.5%. The viability, T/C [22] was 41.4%, the viability, T/C [23] was 20.8% and the viability, T/C [24] was 52.2%. It also gave a viability, T/C [25] of 72.7%, a viability, T/C [26] of 72.2% and a viability, T/C [27] of 66.2%. The viability, T/C [28] was 54.5%, the viability, T/C [29] was 18.1% and the viability, T/C [30] was 73.6%. For the same compound, the viability, T/C [31] was 67.5%, the viability, T/C [32] was 65.7% and the viability, T/C [33] was 62.1%. It also gave a viability, T/C [34] of 40.8% and a viability, T/C [35] of 28.9%.
Work on `CC[C@@]1(O)C(=O)OCc2c1cc1n(c2=O)Cc2cc3c(CN(C)C)c(O)ccc3nc2-1` + Cc1ccccc1N=Nc1ccc(NC(=O)c2ccnn2C)c(C)c1 yielded an IC50 [1] of 16.5 nM, an IC50 [2] of 11.3 nM and an IC50 [3] of 13.4 nM. The IC50 [4] was 8.38 nM, the IC50 [5] was 6.22 nM and the viability, T/C (second compound 0.1 µM, first compound 0.000316 µM) was 116%. For the same compound, the viability, T/C (second compound 0.1 µM, first compound 0.001 µM) was 101%, the viability, T/C (second compound 0.1 µM, first compound 0.00316 µM) was 112% and the viability, T/C (second compound 0.1 µM, first compound 0.01 µM) was 65.9%. It also gave a viability, T/C [36] of 29.3%, a viability, T/C [37] of 13% and a viability, T/C (second compound 0.316 µM, first compound 0.000316 µM) of 95%. The viability, T/C (second compound 0.316 µM, first compound 0.001 µM) was 104%, the viability, T/C (second compound 0.316 µM, first compound 0.00316 µM) was 98.5% and the viability, T/C (second compound 0.316 µM, first compound 0.01 µM) was 52.8%. For the same compound, the viability, T/C [38] was 25.5%, the viability, T/C [39] was 17% and the viability, T/C (second compound 1 µM, first compound 0.000316 µM) was 130%. The viability, T/C (second compound 1 µM, first compound 0.001 µM) was 76.9%, the viability, T/C (second compound 1 µM, first compound 0.00316 µM) was 98% and the viability, T/C (second compound 1 µM, first compound 0.01 µM) was 57.3%. It also gave a viability, T/C [40] of 22.5%, a viability, T/C [41] of 17.2% and a viability, T/C (second compound 3.16 µM, first compound 0.000316 µM) of 64.5%. The viability, T/C (second compound 3.16 µM, first compound 0.001 µM) was 63.3%, the viability, T/C (second compound 3.16 µM, first compound 0.00316 µM) was 79.1% and the viability, T/C (second compound 3.16 µM, first compound 0.01 µM) was 46.5%. The viability, T/C [42] was 19.1%, the viability, T/C [43] was 15.4% and the viability, T/C (second compound 10 µM, first compound 0.000316 µM) was 66.8%. The viability, T/C (second compound 10 µM, first compound 0.001 µM) was 65.1%, the viability, T/C (second compound 10 µM, first compound 0.00316 µM) was 68.7% and the viability, T/C (second compound 10 µM, first compound 0.01 µM) was 38.2%. For the same compound, the viability, T/C [44] was 22.2% and the viability, T/C [45] was 17.5%.
With `O=C(c1cc(Cc2n[nH]c(=O)c3ccccc23)ccc1F)N1CCN(C(=O)C2CC2)CC1` the viability, T/C (compound 0.0316 µM) was 99.3% and 78.6% and 91.4%, the viability, T/C (compound 0.1 µM) was 96.3% and 102% and 76.1% and the viability, T/C (compound 0.316 µM) was 102% and 59% and 78.5%. For the same compound, the viability, T/C (compound 1 µM) was 92.2% and 95.7% and 68.9%, the viability, T/C (compound 3.16 µM) was 92.4% and 52.9% and 67.8% and the viability, T/C (compound 10 µM) was 64.2% and 30% and 36.2%. The IC50 (curve of compound) was > 10000 nM and 3670 nM and 5620 nM.
For `O=C(C=Cc1cccc(S(=O)(=O)Nc2ccccc2)c1)NO` + Cc1cncc(-c2nc(NCCc3c[nH]c4ccccc34)c3ncn(C(C)C)c3n2)c1, the IC50 [1] was 682 nM, the IC50 [2] was 524 nM and the IC50 [3] was 598 nM. For the same compound, the IC50 [4] was < 31.6 nM, the IC50 [5] was < 31.6 nM and the viability, T/C [36] was 90.6%. It also gave a viability, T/C [37] of 79.1%, a viability, T/C (second compound 0.1 µM, first compound 0.316 µM) of 67.8% and a viability, T/C (second compound 0.1 µM, first compound 1 µM) of 43.2%. For the same compound, the viability, T/C (second compound 0.1 µM, first compound 3.16 µM) was 13.2%, the viability, T/C (second compound 0.1 µM, first compound 10 µM) was 1.82% and the viability, T/C [38] was 85.2%. The viability, T/C [39] was 68.9%, the viability, T/C (second compound 0.316 µM, first compound 0.316 µM) was 59.3% and the viability, T/C (second compound 0.316 µM, first compound 1 µM) was 43.5%. For the same compound, the viability, T/C (second compound 0.316 µM, first compound 3.16 µM) was 11.3%, the viability, T/C (second compound 0.316 µM, first compound 10 µM) was 1.83% and the viability, T/C [40] was 76.4%. The viability, T/C [41] was 75.8%, the viability, T/C (second compound 1 µM, first compound 0.316 µM) was 61.1% and the viability, T/C (second compound 1 µM, first compound 1 µM) was 41.3%. The viability, T/C (second compound 1 µM, first compound 3.16 µM) was 10.3%, the viability, T/C (second compound 1 µM, first compound 10 µM) was 1.94% and the viability, T/C [42] was 30.8%. For the same compound, the viability, T/C [43] was 34.8%, the viability, T/C (second compound 3.16 µM, first compound 0.316 µM) was 37.9% and the viability, T/C (second compound 3.16 µM, first compound 1 µM) was 22.7%. For the same compound, the viability, T/C (second compound 3.16 µM, first compound 3.16 µM) was 7.91%, the viability, T/C (second compound 3.16 µM, first compound 10 µM) was 1.33% and the viability, T/C [44] was 3.17%. It also gave a viability, T/C [45] of 3.68%, a viability, T/C (second compound 10 µM, first compound 0.316 µM) of 2.97% and a viability, T/C (second compound 10 µM, first compound 1 µM) of 1.98%. For the same compound, the viability, T/C (second compound 10 µM, first compound 3.16 µM) was 1.53% and the viability, T/C (second compound 10 µM, first compound 10 µM) was 0.75%.
In the case of `Cc1cncc(-c2nc(NCCc3c[nH]c4ccccc34)c3ncn(C(C)C)c3n2)c1`, the viability, T/C (compound 0.1 µM) is reported as 97.7% [middle of 20 runs], the viability, T/C (compound 0.316 µM) is reported as 93.4% [middle of 20 runs] and the viability, T/C (compound 10 µM) is reported as 2.04% [middle of 19 runs].
`CC(C)CC(NC(=O)C(Cc1ccccc1)NC(=O)c1cnccn1)B(O)O` (configuration not stated) + Cc1ccccc1N=Nc1ccc(NC(=O)c2ccnn2C)c(C)c1 was tested, and the IC50 [1] was < 0.949 nM, the IC50 [2] was < 0.949 nM and the IC50 [3] was 1.18 nM. For the same compound, the IC50 [4] was 1.06 nM, the IC50 [5] was < 0.949 nM and the viability, T/C [6] was 46.8%. It also gave a viability, T/C [7] of 11.1%, a viability, T/C [8] of 3.13% and a viability, T/C [9] of 1.55%. The viability, T/C [10] was 1.77%, the viability, T/C [11] was 0.98% and the viability, T/C [12] was 48.2%. For the same compound, the viability, T/C [13] was 11.7%, the viability, T/C [14] was 2.73% and the viability, T/C [15] was 1.61%. For the same compound, the viability, T/C [16] was 1.03%, the viability, T/C [17] was 1.37% and the viability, T/C [18] was 58.5%. For the same compound, the viability, T/C [19] was 13.4%, the viability, T/C [20] was 2.69% and the viability, T/C [21] was 1.87%. The viability, T/C [22] was 1.39%, the viability, T/C [23] was 1.15% and the viability, T/C [24] was 53.7%. It also gave a viability, T/C [25] of 14%, a viability, T/C [26] of 2.77% and a viability, T/C [27] of 1.76%. For the same compound, the viability, T/C [28] was 1.72%, the viability, T/C [29] was 1.32% and the viability, T/C [30] was 41.6%. The viability, T/C [31] was 14.5%, the viability, T/C [32] was 2.75% and the viability, T/C [33] was 1.8%. It also gave a viability, T/C [34] of 1.43% and a viability, T/C [35] of 1.45%.
